# In patent US11279733B2, “Peptide antibiotics” (priority 2017, dated 2022):
# Where two headings read alike, the source gives them in different places. Positions of bridges follow the written chain, without caps; N, C: chain ends. Non-standard residues stand in square brackets, D forms with d. Residues, ends and D or L forms follow the SMILES beside them. *: point of attachment. Decanoyl(3R-OH) = CCCCCCC[C@@H](O)CC(=O)*; d3Pal = N[C@H](Cc1cccnc1)C(=O)O; dOrn = NCCC[C@@H](N)C(=O)O; dDab = NCC[C@@H](N)C(=O)O; Dab = NCC[C@H](N)C(=O)O
# Assays:
# [1] = system: A. baumannii ATCC 19606; details: ATCC 19606
# Summary of the method: (§1)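 Mid-log cultures grown in Mueller Hinton broth at 37° C were tested by 2-fold broth microdilution at 5×10^5 CFU/mL final. Compounds were dissolved in water and tested over a final range of 32 to 0.015 μg/mL.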
# [2] = system: A. baumannii GN_093 PmxR; details: GN 093 PmxR
# Summary of the method: as §1
# [3] = system: E. coli ATCC 25922; details: ATCC 25922
# Summary of the method: as §1
# [4] = system: K. pneumoniae ATCC 13883; details: ATCC 13883
# Summary of the method: as §1
# [5] = system: K. pneumoniae ATCC 700603, MDR; details: ATCC 700603
# Summary of the method: as §1
# [6] = system: K. pneumoniae ATCC BAA-2146, NDM-1 pos; details: ATCC BAA-2146
# Summary of the method: as §1
# [7] = system: K. pneumoniae GN_102 PmxR; details: GN 102 PmxR
# Summary of the method: as §1
# [8] = system: K. pneumoniae GN_106, PmxR; details: GN 106, PmxR
# Summary of the method: as §1
# [9] = system: P. aeruginosa ATCC 27853; details: ATCC 27853
# Summary of the method: as §1
# [10] = system: P. aeruginosa GN_043, PmxR
# Summary of the method: as §1
# [11] = system: P. aeruginosa GN_105, PmxR; details: GN 105, PmxR
# Summary of the method: as §1
# [12] = system: S. aureus ATCC 25923, MSSA; details: ATCC 25923
# Summary of the method: as §1
# [13] = in vitro; details: human
# Summary of the method: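 HK2 cells were seeded at 2000 per well in DMEM/F12 with 10% FBS and left to attach for 24 h at 37 °C, 5% CO2. They were then exposed for 24 h to 3-fold peptide dilutions starting from 600 μM solutions in quadruplicate. LDH release was read at 450 nm, and CC50 was fitted from dose-response curves.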
Compound,"MIC, A. baumannii ATCC 19606 [1] [µg/mL]",MIC A. baumannii GN_093 PmxR [2] [µg/mL],"MIC, E. coli ATCC 25922 [3] [µg/mL]","MIC, K. pneumoniae ATCC 13883 [4] [µg/mL]","MIC, K. pneumoniae ATCC 700603, MDR [5] [µg/mL]","MIC, K. pneumoniae ATCC BAA-2146, NDM-1 pos [6] [µg/mL]",MIC K. pneumoniae GN_102 PmxR [7] [µg/mL],"MIC K. pneumoniae GN_106, PmxR [8] [µg/mL]","MIC, P. aeruginosa ATCC 27853 [9] [µg/mL]","MIC P. aeruginosa GN_105, PmxR [11] [µg/mL]",CC50 at 24 h [13] [µM],MIC A. baumannii ATCC 19606 [1] [µg/mL],MIC E. coli ATCC 25922 [3] [µg/mL],MIC K. pneumoniae ATCC 13883 [4] [µg/mL],"MIC K. pneumoniae ATCC 700603, MDR [5] [µg/mL]","MIC K. pneumoniae ATCC BAA-2146, NDM-1 pos [6] [µg/mL]",MIC P. aeruginosa ATCC 27853 [9] [µg/mL],"MIC P. aeruginosa GN_043, PmxR ([10]; P. aeruginosa GN_043, PmxR) [µg/mL]","MIC S. aureus ATCC 25923, MSSA [12] [µg/mL]",also measured
"CCCCCCC[C@@H](O)CC(=O)N[C@H](C)C(=O)N[C@H]1CCNC(=O)[C@H](CC(C)C)NC(=O)[C@H](CCN)NC(=O)[C@H](CCN)NC(=O)[C@H](CC(C)C)NC(=O)[C@@H](Cc2ccccc2)NC(=O)[C@H](CCN)NC1=O [compound 4951, 3(R)OH-nC9CO-D-Ala-cyc[L-Dab-L-Dab-D-Phe-L-Leu-L-Dab-L-Dab-L-Leu]] ({Decanoyl(3R-OH)}-[dA][Dab][Dab][dF]L[Dab][Dab]L; lactam 2-C)",32,32,16,16,8,8,4,8,8,16,120,–,–,–,–,–,–,–,–,"MIC P. aeruginosa GN_043, PmxR ([10]; Table 6, polymyxin-resistant): 8 µg/mL; MIC, S. aureus ATCC 25923, MSSA [12]: 32 µg/mL"
"CCCCCCC[C@@H](O)CC(=O)N[C@H](CCCN)C(=O)N[C@H]1CCNC(=O)[C@H]([C@@H](C)O)NC(=O)[C@H](CCN)NC(=O)[C@H](CCN)NC(=O)[C@H](CC(C)C)NC(=O)[C@@H](Cc2ccccc2)NC(=O)[C@H](CCN)NC1=O [compound 6396, 3(R)OH-nC9CO-D-Orn-cyc[L-Dab-L-Dab-D-Phe-L-Leu-L-Dab-L-Dab-L-Thr]] ({Decanoyl(3R-OH)}-[dOrn][Dab][Dab][dF]L[Dab][Dab]T; lactam 2-C)",–,>32,–,–,–,–,>32,>32,–,16,> 300,>64,16,>64,16,32,16,16,>32,–
"CCCCCCC[C@@H](O)CC(=O)N[C@H](Cc1cccnc1)C(=O)N[C@H]1CCNC(=O)[C@H]([C@@H](C)O)NC(=O)[C@H](CCN)NC(=O)[C@H](CCN)NC(=O)[C@H](CC(C)C)NC(=O)[C@@H](Cc2ccccc2)NC(=O)[C@H](CCN)NC1=O [compound 6398, 3(R)OH-nC9CO-D-3PyPhe-cyc[L-Dab-L-Dab-D-Phe-L-Leu-L-Dab-L-Dab-L-Thr]] ({Decanoyl(3R-OH)}-[d3Pal][Dab][Dab][dF]L[Dab][Dab]T; lactam 2-C)",–,>32,–,–,–,–,32,>32,–,>32,> 300,>64,>64,>64,>64,>64,32,>32,>32,–
"CCCCCCC[C@@H](O)CC(=O)N[C@H](CCN)C(=O)N[C@H]1CCNC(=O)[C@H](CC(C)C)NC(=O)[C@H](CCN)NC(=O)[C@H](CCN)NC(=O)[C@H](CC(C)C)NC(=O)[C@@H](Cc2ccccc2)NC(=O)[C@H](C)NC1=O [compound 4948, 3(R)OH-nC9CO-D-Dab-cyc[L-Dab-L-Ala-D-Phe-L-Leu-L-Dab-L-Dab-L-Leu]] ({Decanoyl(3R-OH)}-[dDab][Dab]A[dF]L[Dab][Dab]L; lactam 2-C)",>32,–,16,16,16,8,–,–,1,–,112,–,–,–,–,–,–,–,–,"MIC, A. baumannii Cl Ptyela 10073 4512:2, PmxR [2]: >32 µg/mL; MIC, K. pneumoniae Cl Koprana 10065 0661:1, PmxR [7]: 8 µg/mL; MIC, K. pneumoniae Cl 138-16347-20362, PmxR [8]: 16 µg/mL; MIC, P. aeruginosa FADDI-PA070, PmxR ([10]; Table 5, polymyxin-resistant): 1 µg/mL; MIC, P. aeruginosa PA9704, PmxR [11]: >32 µg/mL; MIC, S. Aureus ATCC 25923, MSSA [12]: >32 µg/mL"
